Patent publication US8664246B2, “Substituted pyridines, and use thereof as GSK3 inhibitors” (Bayer Intellectual Property GmbH, priority 2008, dated 2014)

Target: T1, GSK3β (Homo sapiens, UniProt P49841)
T1 construct: purchased Upstate 14-306
Experiment: In vitro biochemical GSK3β inhibition assay (pyruvate kinase/lactate dehydrogenase-coupled, NADH fluorescence)
Settings: 5 nM GSK3β, 40 μM GSK3β substrate GSM, 50 μM ATP, 30° C. for 2 hours
Experimental: The inhibitory activity of active substances is determined in a biochemical assay. The ingredients required for this purpose are mixed in a black 384-well microtitre plate with transparent base (from Greiner, catalogue number 781092). The ingredients required for each well of the 384-well microtitre plate are 5 nM GSK3β (from Upstate, catalogue number 14-306), 40 μM GSK3β substrate GSM (sequence H-RRRPASVPPSPSLSRHS-(pS)-HQRR, from Upstate, catalogue number 2-533), 30 μM nicotinamide adenine dinucleotide NADH (Roche Diagnostics, catalogue number 10107735), 50 μM adenosine triphosphate ATP (from Sigma, catalogue number A7966), 2 mM phosphoenolpyruvate (from Roche, catalogue number 128112), and approx. 1 U/ml pyruvate kinase and approx. 1 U/ml lactate dehydrogenase, which are present together in a stock formulation (from Roche, catalogue number 10737291001, suspension with approx. 450 U/ml pyruvate kinase activity, approx. 450 U/ml lactate dehydrogenase activity in […] ammonium sulphate solution pH 6). 1 unit of pyruvate kinase converts 1 μmol of phosphoenolpyruvate to pyruvate per minute at pH 7.6 and 37° C., and 1 unit of lactate dehydrogenase reduces 1 μmol of pyruvate to lactate per minute at pH 7.5 and 37° C. The reaction buffer required, in which the biochemical reaction proceeds, consists of 50 mM Trizma hydrochloride Tris-HCl pH: 7.5 (from Sigma, catalogue number T3253), 5 mM magnesium chloride MgCl2 (from Sigma, catalogue number M8266), 0.2 mM DL-dithiothreitol DTT (from Sigma, catalogue number D9779), 2 mM ethylenediamine ether tetraacid EDTA (from Sigma, catalogue number E6758), 0.01% Triton X-100 (from Sigma, catalogue number T8787) and 0.05% bovine serum albumin BSA (from Sigma, catalogue number B4287).
Active substances are dissolved in dimethyl sulphoxide DMSO (from Sigma, catalogue number D8418) in a concentration of 10 mM. Active substances are added in serial concentrations of 10 μM, 1 μM, 0.1 μM, 0.01 μM, 0.001 μM, 0.0001 μM, 0.00001 μM, 0.000001 μM to the mixtures of the biochemical reaction. As control, dimethyl sulphoxide is added instead of substance in a final concentration of 0.1%.
The reaction is incubated at 30° C. for 2 hours and then the resulting fluorescence is measured in a Tecan Safire-XFLUOR4 instrument, version V4.50 (serial number 12901300283) with the specifications: measurement mode—fluorescence measured from below, excitation wavelength 340 nm, emission wavelength 465 nm, excitation slit width 5 nm, emission slit width 5 nm, gain mode 120, delay 0 μs, number of light flashes per measurement 3, and an integration time of 40 μs.
The activity of the active substances is calculated in relation to these 0% and 100%.

T1 sequence (P49841 whole entry): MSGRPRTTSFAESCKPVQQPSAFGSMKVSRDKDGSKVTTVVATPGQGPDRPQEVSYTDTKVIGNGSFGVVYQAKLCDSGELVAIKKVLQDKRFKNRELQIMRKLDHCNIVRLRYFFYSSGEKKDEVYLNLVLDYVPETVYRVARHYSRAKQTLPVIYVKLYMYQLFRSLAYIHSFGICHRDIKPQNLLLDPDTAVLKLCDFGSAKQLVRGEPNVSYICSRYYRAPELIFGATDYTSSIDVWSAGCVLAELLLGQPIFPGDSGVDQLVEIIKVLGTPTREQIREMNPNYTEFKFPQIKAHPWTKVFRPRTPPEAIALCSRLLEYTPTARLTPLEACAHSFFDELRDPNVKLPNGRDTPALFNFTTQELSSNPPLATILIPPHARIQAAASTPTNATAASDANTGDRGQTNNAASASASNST

Compound	IC50 [nM]
N#Cc1ccc(NC2CCCN(c3nc(-c4ccc(Cl)cc4Cl)ccc3C#N)C2)nc1N (stereo not shown) [Example 6, 2-Amino-6-({1-[3-cyano-6-(2,4-dichlorophenyl)pyridin-2-yl]piperidin-3-yl}amino)-pyridine-3-carbonitrile]	26
N#Cc1ccc(-c2ccc(Cl)cc2Cl)nc1N1CCCC(Nc2ccc(C(=O)C(F)(F)F)c(N)n2)C1 (single isomer, unassigned) [Example Ent-B-2, 2-(3-{[6-amino-5-(trifluoroacetyl)pyridin-2-yl]amino}piperidin-1-yl)-6-(2,4-dichlorophenyl)pyridine-3-carbonitrile]	5.04
N#Cc1ccc(NC2CCCN(c3nc(-c4ccc(Cl)cc4Cl)ccc3C#N)C2)nc1 (stereo not shown) [Example 7, 2-{3-[(5-Cyanopyridin-2-yl)amino]piperidin-1-yl}-6-(2,4-dichlorophenyl)pyridine-3-carbonitrile]	12
COc1ccccc1-c1ccc(C(=O)N2CCN(C(C)C)CC2)c(N2CCCC(Nc3ccc(C(=O)C(F)(F)F)c(N)n3)C2)n1 (single isomer, unassigned) [Example Ent-B-12, 1-[2-amino-6-({1-[6-(2-methoxyphenyl)-3-{[4-(propan-2-yl)-piperazin-1-yl]carbonyl}pyridin-2-yl]piperidin-3-yl}amino)pyridin-3-yl]-2,2,2-trifluoroethanone]	6.3
